Experimental data from the CheMixHub viscosity set.

Assay: xn = mol fraction of the nth substance listed

CCCN(CCC)CCC + CCC(=O)O
viscosity [mPa·s], 101 kPa
Conditions | x2 = 0.1 | x2 = 0.4 | x2 = 0.5 | x2 = 0.6 | x2 = 0.7 | x2 = 0.75 | x2 = 0.775 | x2 = 0.8 | x2 = 0.9
293.15 K | 0.734 | 4.43 | 5.62 | 5.97 | 13.95 | 20.55 | 23.47 | 23.75 | 8.57
298.15 K | 0.664 | 3.85 | 5.12 | 5.22 | 11.2 | 16.25 | 18.67 | 18.96 | 7.5
303.15 K | 0.589 | 3.5 | 4.35 | 4.5 | 9.2 | 13.02 | 15 | 15.59 | 6.47
308.15 K | 0.54 | 3.1 | 3.75 | 3.8 | 7.7 | 10.85 | 12.22 | 12.77 | 5.81
313.15 K | 0.51 | 2.8 | 3.62 | 3.35 | 6.52 | 9 | 10.32 | 10.76 | 5.04
318.15 K | 0.499 | 2.45 | 3.03 | 3 | 5.57 | 7.62 | 8.68 | 8.96 | 4.4
323.15 K | 0.464 | 2.22 | 2.75 | 2.67 | 4.82 | 6.46 | 7.44 | 7.72 | 4.05

CCN(CC)c1ccccc1 + CCC(=O)O
Conditions | viscosity [mPa·s]
323.15 K, 101 kPa, x2 = 0.5177 | 1.865

ClCCCCl + CCC(C)(C)O
viscosity [mPa·s], 101 kPa
Conditions | x1 = 0.101 | x1 = 0.2021 | x1 = 0.3082 | x1 = 0.4082 | x1 = 0.5066 | x1 = 0.608 | x1 = 0.7071 | x1 = 0.808 | x1 = 0.9003
298.15 K | 2.779 | 1.877 | 1.393 | 1.18 | 1.061 | 0.9826 | 0.9381 | 0.9128 | 0.9114
313.15 K | 1.508 | 1.164 | 0.9559 | 0.8566 | 0.7978 | 0.7579 | 0.7469 | 0.7328 | 0.7431

CCCN(CCC)CCC + CCC(C)O
303.15 K, 101 kPa
Conditions | viscosity [mPa·s]
x1 = 0.009049 | 2.448
x1 = 0.02003 | 2.423
x1 = 0.02982 | 2.4
x1 = 0.04 | 2.379
x1 = 0.05207 | 2.352
x1 = 0.06138 | 2.332
x1 = 0.06704 | 2.317
x1 = 0.07865 | 2.291
x1 = 0.09178 | 2.264

ClCCCCl + CCC(C)O
viscosity [mPa·s], 101 kPa
Conditions | x1 = 0.1002 | x1 = 0.2005 | x1 = 0.3002 | x1 = 0.4005 | x1 = 0.4986 | x1 = 0.6027 | x1 = 0.6951 | x1 = 0.8051 | x1 = 0.9113
298.15 K | 2.23 | 1.683 | 1.346 | 1.134 | 1.031 | 0.9587 | 0.9141 | 0.894 | 0.8997
313.15 K | 1.369 | 1.103 | 0.9402 | 0.8403 | 0.7841 | 0.7468 | 0.7254 | 0.7214 | 0.7371

Cc1ccc(C(C)C)c(O)c1 + CCCCCCCC(=O)O
100 kPa, x2 = 0.579
Conditions | viscosity [mPa·s]
293.15 K | 9.71
298.15 K | 8
303.15 K | 6.68
308.15 K | 5.65
313.15 K | 4.83
318.15 K | 4.17
323.15 K | 3.64

Cc1ccc(C(C)C)c(O)c1 + CCCCCCCCCC(=O)O
100 kPa, x2 = 0.5
Conditions | viscosity [mPa·s]
293.15 K | 15.28
298.15 K | 12.16
303.15 K | 9.86
308.15 K | 8.12
313.15 K | 6.78
318.15 K | 5.74
323.15 K | 4.91

Cc1ccc(C(C)C)c(O)c1 + CCCCCCCCCCCC(=O)O
100 kPa, x2 = 0.45
Conditions | viscosity [mPa·s]
303.15 K | 12.43
308.15 K | 10.12
313.15 K | 8.37
318.15 K | 7.01
323.15 K | 5.95

Cc1ccc(C(C)C)c(O)c1 + CCCCCCCCCCCCCC(=O)O
100 kPa, x2 = 0.25
Conditions | viscosity [mPa·s]
313.15 K | 8.69
318.15 K | 7.16
323.15 K | 5.98

Cc1ccc(C(C)C)c(O)c1 + CCCCCCCCCCCCCCCC(=O)O
100 kPa, x2 = 0.2
Conditions | viscosity [mPa·s]
313.15 K | 9.21
318.15 K | 7.54
323.15 K | 6.29

Cc1ccc(C(C)C)c(O)c1 + CCCCCCCCCCCCCCCCCC(=O)O
100 kPa, x2 = 0.1
Conditions | viscosity [mPa·s]
318.15 K | 6.88
323.15 K | 5.68

CCN(CC)c1ccccc1 + CCCCCCCCO
viscosity [mPa·s], 100 kPa
Conditions | x1 = 0.1141 | x1 = 0.2548 | x1 = 0.3537 | x1 = 0.4726 | x1 = 0.5725 | x1 = 0.6945 | x1 = 0.7795 | x1 = 0.8584 | x1 = 0.9317
303.15 K | 5.389 | 4.382 | 3.806 | 3.235 | 2.842 | 2.446 | 2.212 | 2.016 | 1.847
308.15 K | 4.42 | 3.49 | 2.987 | 2.519 | 2.221 | 1.947 | 1.8 | 1.684 | 1.587
313.15 K | 3.684 | 2.854 | 2.428 | 2.056 | 1.837 | 1.653 | 1.56 | 1.487 | 1.421
318.15 K | 3.135 | 2.356 | 1.976 | 1.667 | 1.503 | – | 1.339 | 1.305 | 1.271
